Experiment [1] deals with T1, human PI3Kα protein (Homo sapiens, UniProt P42336).
T1 construct: purchased Carna Biosciences, Inc; host or cells: baculovirus expression system
Kind of experiment: PI3Kα enzyme assay (ADP-Glo). To be noted: read-out: PI3Kα enzyme inhibitory activity. Type of experiment: biochemical. A digest of the protocol: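 Biotinylated human PI3Kα (baculovirus-expressed, 4.5 nmol/L) pre-incubated 15 min with compound in Tris-HCl pH 7.5, MgCl2, BSA; reaction 60 min at 25° C with 50 μmol/L PIP2 and 100 μmol/L ATP final. ADP quantified by ADP-Glo luminescence; IC50 calculated.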

Experiment [2] addresses T2, GST fusion human ERK2 protein (Homo sapiens, UniProt P28482).
T2 construct: purchased Carna Biosciences, Inc; host or cells: E. coli expression system
Kind of experiment: ERK2 enzyme assay (1). To be noted: ERK2 enzyme assay (1); read-out: ERK2 enzyme inhibitory activity (1). Type of experiment: biochemical. A digest of the protocol:
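Enzyme (2.5 nmol/L, E. coli-expressed) preincubated with compound 15 min at room temperature in HEPES/MgCl2/DTT/Brij35 buffer, pH 7.5; reaction with 4.25 μmol/L FL-Peptide 8 and 43.1 μmol/L ATP for 120 min at 25 °C. Phosphorylated peptide fraction quantified by mobility-shift separation after EDTA stop; IC50 calculated.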

In experiment [3] the target is T2, GST fusion human ERK2 protein. Briefly: ERK2 enzyme assay (2). Type of experiment: biochemical. The following applies: ERK2 enzyme assay (2); read-out: ERK2 enzyme inhibitory activity (2). A digest of the protocol:
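GST-tagged human ERK2 expressed in E. coli (1.25 nmol/L) was preincubated with compound for 15 min at room temperature in pH 7.5 Hepes buffer with MgCl2, DTT and Brij35. Reaction with FL-Peptide 8 (final 4.25 μmol/L) and ATP (final 1 mmol/L) ran 120 min at 25 °C; EDTA stopped it, and phosphorylated peptide was quantified by mobility-shift separation to derive IC50.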

Experiment [4] deals with CHO-K1 cells. Briefly: CHO cell toxicity test. Type of experiment: cell-based, Chinese hamster. To be noted: Cricetulus griseus; CHO-K1 cells, 24 hours culture with compound, CellTiter-Glo; read-out: IC50 value (concentration at which the number of viable cells was suppressed to 50% or less). In outline: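 CHO-K1 cells were cultured 24 h, then exposed 24 h to compound at final 25.00 to 0.20 μmol/L in F-12 with 2% FCS. Viability read by CellTiter-Glo luminescence; inhibition % = 100 − (treated/untreated signal)×100.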

Where only a bound is given, the exact number is not on record here.

T2 sequence (P28482 whole entry, the tested form may be a part): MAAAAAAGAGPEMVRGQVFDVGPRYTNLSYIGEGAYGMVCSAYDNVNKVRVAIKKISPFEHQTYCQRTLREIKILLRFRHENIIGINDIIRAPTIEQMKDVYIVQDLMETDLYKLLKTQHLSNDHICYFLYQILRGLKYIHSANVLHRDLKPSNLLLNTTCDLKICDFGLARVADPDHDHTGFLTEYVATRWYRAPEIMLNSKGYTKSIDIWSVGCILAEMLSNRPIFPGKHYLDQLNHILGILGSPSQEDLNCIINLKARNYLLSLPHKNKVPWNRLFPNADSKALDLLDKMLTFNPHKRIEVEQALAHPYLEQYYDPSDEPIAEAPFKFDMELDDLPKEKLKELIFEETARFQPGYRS
T1 sequence (P42336 whole entry): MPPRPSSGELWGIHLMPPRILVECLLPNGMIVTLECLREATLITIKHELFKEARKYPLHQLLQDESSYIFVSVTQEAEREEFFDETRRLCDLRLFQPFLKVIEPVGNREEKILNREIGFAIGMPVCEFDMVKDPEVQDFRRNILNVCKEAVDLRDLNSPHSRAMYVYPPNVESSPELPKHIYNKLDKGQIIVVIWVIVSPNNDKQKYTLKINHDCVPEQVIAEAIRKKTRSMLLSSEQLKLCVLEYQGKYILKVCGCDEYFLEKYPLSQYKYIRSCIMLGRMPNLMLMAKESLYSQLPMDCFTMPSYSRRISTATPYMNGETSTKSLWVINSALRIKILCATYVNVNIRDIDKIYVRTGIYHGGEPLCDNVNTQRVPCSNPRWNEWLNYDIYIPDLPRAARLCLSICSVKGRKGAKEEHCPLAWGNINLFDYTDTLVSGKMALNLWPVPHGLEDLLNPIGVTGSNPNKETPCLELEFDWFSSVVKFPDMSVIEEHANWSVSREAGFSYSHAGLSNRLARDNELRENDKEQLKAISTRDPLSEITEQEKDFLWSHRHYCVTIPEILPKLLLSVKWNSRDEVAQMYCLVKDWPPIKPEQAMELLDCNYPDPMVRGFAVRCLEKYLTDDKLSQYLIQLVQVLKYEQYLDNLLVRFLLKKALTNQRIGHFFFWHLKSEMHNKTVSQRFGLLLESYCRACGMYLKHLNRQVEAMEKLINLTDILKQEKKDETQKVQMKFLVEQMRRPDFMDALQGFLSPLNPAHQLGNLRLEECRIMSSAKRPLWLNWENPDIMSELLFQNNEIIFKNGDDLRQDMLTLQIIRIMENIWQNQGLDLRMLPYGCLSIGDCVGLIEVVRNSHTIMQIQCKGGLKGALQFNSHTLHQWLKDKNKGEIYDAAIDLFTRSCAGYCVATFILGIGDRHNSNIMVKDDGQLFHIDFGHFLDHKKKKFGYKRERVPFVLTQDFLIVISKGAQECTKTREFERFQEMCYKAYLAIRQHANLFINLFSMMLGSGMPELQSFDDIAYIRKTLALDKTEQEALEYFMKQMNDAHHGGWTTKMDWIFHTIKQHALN
T1 sequence (P27986 whole entry partner): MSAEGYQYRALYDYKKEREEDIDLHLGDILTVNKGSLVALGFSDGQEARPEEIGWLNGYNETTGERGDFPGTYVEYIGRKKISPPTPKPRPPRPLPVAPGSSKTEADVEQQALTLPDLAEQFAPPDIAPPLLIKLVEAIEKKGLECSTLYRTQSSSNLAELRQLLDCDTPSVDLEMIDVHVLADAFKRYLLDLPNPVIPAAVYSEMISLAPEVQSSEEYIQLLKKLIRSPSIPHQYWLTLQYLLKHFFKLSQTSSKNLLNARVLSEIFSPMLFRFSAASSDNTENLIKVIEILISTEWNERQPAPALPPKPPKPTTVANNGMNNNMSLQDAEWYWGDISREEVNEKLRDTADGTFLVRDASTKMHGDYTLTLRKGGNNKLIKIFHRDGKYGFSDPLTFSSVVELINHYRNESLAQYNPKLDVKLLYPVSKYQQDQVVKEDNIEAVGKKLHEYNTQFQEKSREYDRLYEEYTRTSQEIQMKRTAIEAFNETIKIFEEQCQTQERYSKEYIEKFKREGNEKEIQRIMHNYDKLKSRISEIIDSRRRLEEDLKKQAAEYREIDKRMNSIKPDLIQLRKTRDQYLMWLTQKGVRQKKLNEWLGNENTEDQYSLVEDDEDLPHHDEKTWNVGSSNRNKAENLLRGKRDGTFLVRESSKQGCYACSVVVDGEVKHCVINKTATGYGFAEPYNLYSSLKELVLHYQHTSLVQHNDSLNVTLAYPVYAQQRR

Take `CC(C)c1cnnc(Nc2ccc3ncc(-c4cnn(CCN5CCOCC5)c4)cc3n2)c1` [Example 0382, N-(5-isopropylpyridazin-3-yl)-7-(1-(2-morpholinoethyl)-1H-pyrazol-4-yl)-1,5-naphthyridine-2-amine]: the IC50 is less than 1000 nM in experiment [1], less than 1000 nM in experiment [2], less than 1000 nM in experiment [3] and no less than 25000 nM in experiment [4].
As to `Cc1nn(CCCN2CCOCC2)cc1-c1cnc2ccc(Nc3cc(C(C)C)cnn3)nc2c1` [Example 0384, N-(5-isopropylpyridazin-3-yl)-7-(3-methyl-1-(3-morpholinopropyl)-1H-pyrazol-4-yl)-1,5-naphthyridine-2-amine], the IC50 in experiment [1] was less than 1000 nM; in experiment [2] it was less than 1000 nM; in experiment [3], less than 1000 nM; in experiment [4], no less than 25000 nM.
For the molecule `CC1(C)COc2nnc(Nc3ccc4ncc(-c5cnn(CCCN6CCCC6)c5)cc4n3)cc21` [Example 0401, 5,5-Dimethyl-N-(7-(1-(3-(pyrrolidin-1-yl)propyl)-1H-pyrazol-4-yl)-1,5-naphthyridin-2-yl)-5,6-dihydrofuro[2,3-c]pyridazine-3-amine], the IC50 in experiment [1] is less than 1000 nM; in experiment [2] it was less than 1000 nM; in experiment [3] it was less than 1000 nM; in experiment [4], no less than 25000 nM.
As for `CN(C)c1cnnc(Nc2ccc3ncc(-c4cnn(CCCN5CCCC5)c4)cc3n2)c1` [Example 0403, N^5,N^5-dimethyl-N^3-(7-(1-(3-(pyrrolidin-1-yl)propyl)-1H-pyrazol-4-yl)-1,5-naphthyridin-2-yl)pyridazine-3,5-diamine], the IC50 in experiment [1] was less than 1000 nM; in experiment [2], less than 1000 nM; in experiment [3], less than 1000 nM; in experiment [4], no less than 25000 nM.
Take `CC(C)c1cnnc(Nc2ccc3ncc(-c4cnn(CCCO)c4)cc3n2)c1` [Example 0473]: the IC50 in experiment [1] was less than 1000 nM; in experiment [2], less than 1000 nM; in experiment [3], less than 1000 nM; in experiment [4], no less than 25000 nM.
On to `CC(C)c1cnnc(Nc2ccc3ncc(-c4cnn(CCC(C)(C)O)c4)cc3n2)c1` [Example 0474], for which the IC50 in experiment [1] is less than 1000 nM; in experiment [2], less than 1000 nM; in experiment [3], less than 1000 nM; in experiment [4] it was no less than 25000 nM.

For the origin of these results see patent US9783536B2, “Nitrogen-containing heterocyclic compound or salt thereof” (FUJIFILM Corporation, priority 2013, dated 2017).
